PMC10239507, “Development of allosteric and selective CDK2 inhibitors for contraception with negative cooperativity to cyclin binding” (Nature Communications, 2023)

Experiments:
Test in all cases: biochemical
[1] = molecular target: T1, 371 kinases (kinase named in each endpoint) (Homo sapiens, UniProt O14733); conditions: MKK7
T1 construct: purchased Reaction Biology

[2] = molecular target: T2, 371 kinases (kinase named in each endpoint) (Homo sapiens, UniProt O94921); conditions: CDK14/CYCLIN Y (PFTK1)
T2 construct: purchased Reaction Biology

[3] = molecular target: T3, 371 kinases (kinase named in each endpoint) (Homo sapiens, UniProt P00533); conditions: EGFR
T3 construct: purchased Reaction Biology

[4] = molecular target: T4, 371 kinases (kinase named in each endpoint) (Homo sapiens, UniProt P05771); conditions: PKCB1
T4 construct: purchased Reaction Biology

[5] = molecular target: T5, 371 kinases (kinase named in each endpoint) (Homo sapiens, UniProt P06493)
T5 construct: purchased Reaction Biology

[6] = molecular target: T6, 371 kinases (kinase named in each endpoint) (Homo sapiens, UniProt P17252); conditions: PKCA
T6 construct: purchased Reaction Biology

[7] = molecular target: T7, 371 kinases (kinase named in each endpoint) (Homo sapiens, UniProt P23443); conditions: P70S6K/RPS6KB1
T7 construct: purchased Reaction Biology

[8] = molecular target: T8, 371 kinases (kinase named in each endpoint) (Homo sapiens, UniProt P25098); conditions: GRK2
T8 construct: purchased Reaction Biology

[9] = molecular target: T9, 371 kinases (kinase named in each endpoint) (Homo sapiens, UniProt P35626); conditions: GRK3
T9 construct: purchased Reaction Biology

[10] = molecular target: T10, 371 kinases (kinase named in each endpoint) (Homo sapiens, UniProt P36894); conditions: ALK3/BMPR1A
T10 construct: purchased Reaction Biology

[11] = molecular target: T11, 371 kinases (kinase named in each endpoint) (Homo sapiens, UniProt P37023); conditions: ALK1/ACVRL1
T11 construct: purchased Reaction Biology

[12] = molecular target: T12, 371 kinases (kinase named in each endpoint) (Homo sapiens, UniProt P37173); conditions: TGFBR2
T12 construct: purchased Reaction Biology

[13] = molecular target: T13, 371 kinases (kinase named in each endpoint) (Homo sapiens, UniProt P45985); conditions: MKK4
T13 construct: purchased Reaction Biology

[14] = molecular target: T14, 371 kinases (kinase named in each endpoint) (Homo sapiens, UniProt P49674); conditions: CK1EPSILON
T14 construct: purchased Reaction Biology

[15] = molecular target: T15, 371 kinases (kinase named in each endpoint) (Homo sapiens, UniProt P51955); conditions: NEK2
T15 construct: purchased Reaction Biology

[16] = molecular target: T16, 371 kinases (kinase named in each endpoint) (Homo sapiens, UniProt P78362); conditions: SRPK2
T16 construct: purchased Reaction Biology

[17] = molecular target: T17, 371 kinases (kinase named in each endpoint) (Homo sapiens, UniProt Q08345); conditions: DDR1
T17 construct: purchased Reaction Biology

[18] = molecular target: T18, 371 kinases (kinase named in each endpoint) (Homo sapiens, UniProt Q09013); conditions: DMPK
T18 construct: purchased Reaction Biology

[19] = molecular target: T19, 371 kinases (kinase named in each endpoint) (Homo sapiens, UniProt Q13627); conditions: DYRK1/DYRK1A
T19 construct: purchased Reaction Biology

[20] = molecular target: T20, 371 kinases (kinase named in each endpoint) (Homo sapiens, UniProt Q15746); conditions: MLCK/MYLK
T20 construct: purchased Reaction Biology

[21] = molecular target: T21, 371 kinases (kinase named in each endpoint) (Homo sapiens, UniProt Q15831); conditions: LKB1
T21 construct: purchased Reaction Biology

[22] = molecular target: T22, 371 kinases (kinase named in each endpoint) (Homo sapiens, UniProt Q16288); conditions: TRKC
T22 construct: purchased Reaction Biology

[23] = molecular target: T23, 371 kinases (kinase named in each endpoint) (Homo sapiens, UniProt Q5TCX8); conditions: MLK4
T23 construct: purchased Reaction Biology

[24] = molecular target: T24, 371 kinases (kinase named in each endpoint) (Homo sapiens, UniProt Q5TCY1); conditions: TTBK1
T24 construct: purchased Reaction Biology

[25] = molecular target: T25, 371 kinases (kinase named in each endpoint) (Homo sapiens, UniProt Q6P5Z2); conditions: PKN3/PRK3
T25 construct: purchased Reaction Biology

[26] = molecular target: T26, 371 kinases (kinase named in each endpoint) (Homo sapiens, UniProt Q86YV6); conditions: MYLK4
T26 construct: purchased Reaction Biology

[27] = molecular target: T27, 371 kinases (kinase named in each endpoint) (Homo sapiens, UniProt Q8IY84); conditions: NIM1
T27 construct: purchased Reaction Biology

[28] = molecular target: T28, 371 kinases (kinase named in each endpoint) (Homo sapiens, UniProt Q8N568); conditions: DCAMKL2
T28 construct: purchased Reaction Biology

[29] = molecular target: T29, 371 kinases (kinase named in each endpoint) (Homo sapiens, UniProt Q96L34); conditions: MARK4
T29 construct: purchased Reaction Biology

[30] = molecular target: T30, 371 kinases (kinase named in each endpoint) (Homo sapiens, UniProt Q96NX5); conditions: CAMK1G
T30 construct: purchased Reaction Biology

[31] = molecular target: T31, 371 kinases (kinase named in each endpoint) (Homo sapiens, UniProt Q9BXA6); conditions: SSTK/TSSK6
T31 construct: purchased Reaction Biology

[32] = molecular target: T32, 371 kinases (kinase named in each endpoint) (Homo sapiens, UniProt Q9HC98); conditions: NEK6
T32 construct: purchased Reaction Biology

[33] = molecular target: T33, 371 kinases (kinase named in each endpoint) (Homo sapiens, UniProt Q9NRH2); conditions: SNRK
T33 construct: purchased Reaction Biology

[34] = molecular target: T34, 371 kinases (kinase named in each endpoint) (Homo sapiens, UniProt Q9P289); conditions: MST4
T34 construct: purchased Reaction Biology

[35] = molecular target: T35, 371 kinases (kinase named in each endpoint) (Homo sapiens, UniProt Q9UEE5); conditions: DRAK1/STK17A
T35 construct: purchased Reaction Biology

[36] = molecular target: T36, 371 kinases (kinase named in each endpoint) (Homo sapiens, UniProt Q9Y243); conditions: AKT3
T36 construct: purchased Reaction Biology
T36 sequence (Q9Y243 whole entry): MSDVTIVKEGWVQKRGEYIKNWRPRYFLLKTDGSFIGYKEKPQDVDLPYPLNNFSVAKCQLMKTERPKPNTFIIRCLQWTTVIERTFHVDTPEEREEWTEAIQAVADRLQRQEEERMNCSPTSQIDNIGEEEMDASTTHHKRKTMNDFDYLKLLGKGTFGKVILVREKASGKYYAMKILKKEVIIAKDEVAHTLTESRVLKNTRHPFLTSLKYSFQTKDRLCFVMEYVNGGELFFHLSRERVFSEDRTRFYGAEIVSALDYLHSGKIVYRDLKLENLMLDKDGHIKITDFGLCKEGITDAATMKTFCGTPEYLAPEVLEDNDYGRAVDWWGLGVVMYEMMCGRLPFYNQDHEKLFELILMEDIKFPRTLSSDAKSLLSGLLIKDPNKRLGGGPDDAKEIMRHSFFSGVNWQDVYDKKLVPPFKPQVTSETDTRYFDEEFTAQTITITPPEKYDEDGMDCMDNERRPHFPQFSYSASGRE

T5 sequence (P06493 whole entry): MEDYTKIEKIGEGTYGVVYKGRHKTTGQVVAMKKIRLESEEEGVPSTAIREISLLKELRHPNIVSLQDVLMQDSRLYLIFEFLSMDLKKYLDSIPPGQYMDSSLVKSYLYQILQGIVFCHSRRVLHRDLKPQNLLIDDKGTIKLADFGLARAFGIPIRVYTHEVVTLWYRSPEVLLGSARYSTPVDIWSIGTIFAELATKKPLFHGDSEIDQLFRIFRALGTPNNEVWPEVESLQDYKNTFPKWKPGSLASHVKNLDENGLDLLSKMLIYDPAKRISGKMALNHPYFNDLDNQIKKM
T34 sequence (Q9P289 whole entry): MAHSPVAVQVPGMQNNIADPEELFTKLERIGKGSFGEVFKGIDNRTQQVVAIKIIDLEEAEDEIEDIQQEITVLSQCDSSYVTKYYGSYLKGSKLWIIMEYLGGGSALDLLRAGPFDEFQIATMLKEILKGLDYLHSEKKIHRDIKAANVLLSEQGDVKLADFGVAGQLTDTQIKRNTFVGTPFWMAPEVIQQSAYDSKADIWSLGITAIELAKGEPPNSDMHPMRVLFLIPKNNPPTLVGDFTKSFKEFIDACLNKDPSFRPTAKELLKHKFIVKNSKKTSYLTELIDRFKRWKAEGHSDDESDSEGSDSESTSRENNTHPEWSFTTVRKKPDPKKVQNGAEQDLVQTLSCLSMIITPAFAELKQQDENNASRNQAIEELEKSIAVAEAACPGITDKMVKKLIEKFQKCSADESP
T35 sequence (Q9UEE5 whole entry): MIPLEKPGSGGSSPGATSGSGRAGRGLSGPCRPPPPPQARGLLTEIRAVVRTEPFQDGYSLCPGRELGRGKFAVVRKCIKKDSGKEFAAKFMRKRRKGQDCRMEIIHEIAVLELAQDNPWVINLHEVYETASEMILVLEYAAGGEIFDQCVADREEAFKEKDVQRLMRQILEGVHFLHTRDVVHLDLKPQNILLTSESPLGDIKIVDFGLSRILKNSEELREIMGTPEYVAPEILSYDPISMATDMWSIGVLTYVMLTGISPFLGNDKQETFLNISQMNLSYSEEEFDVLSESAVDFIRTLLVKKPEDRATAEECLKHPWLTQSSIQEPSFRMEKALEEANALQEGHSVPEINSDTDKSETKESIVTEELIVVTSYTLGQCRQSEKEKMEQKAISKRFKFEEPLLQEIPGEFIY
T32 sequence (Q9HC98 whole entry): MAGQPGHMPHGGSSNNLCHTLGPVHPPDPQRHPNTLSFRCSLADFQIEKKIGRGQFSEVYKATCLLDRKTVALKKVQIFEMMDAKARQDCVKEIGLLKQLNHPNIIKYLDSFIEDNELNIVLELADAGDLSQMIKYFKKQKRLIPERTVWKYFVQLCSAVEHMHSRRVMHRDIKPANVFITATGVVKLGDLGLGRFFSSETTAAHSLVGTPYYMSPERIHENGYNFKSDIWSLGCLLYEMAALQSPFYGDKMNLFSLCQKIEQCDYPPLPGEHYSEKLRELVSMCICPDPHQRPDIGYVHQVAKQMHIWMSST
T28 sequence (Q8N568 whole entry): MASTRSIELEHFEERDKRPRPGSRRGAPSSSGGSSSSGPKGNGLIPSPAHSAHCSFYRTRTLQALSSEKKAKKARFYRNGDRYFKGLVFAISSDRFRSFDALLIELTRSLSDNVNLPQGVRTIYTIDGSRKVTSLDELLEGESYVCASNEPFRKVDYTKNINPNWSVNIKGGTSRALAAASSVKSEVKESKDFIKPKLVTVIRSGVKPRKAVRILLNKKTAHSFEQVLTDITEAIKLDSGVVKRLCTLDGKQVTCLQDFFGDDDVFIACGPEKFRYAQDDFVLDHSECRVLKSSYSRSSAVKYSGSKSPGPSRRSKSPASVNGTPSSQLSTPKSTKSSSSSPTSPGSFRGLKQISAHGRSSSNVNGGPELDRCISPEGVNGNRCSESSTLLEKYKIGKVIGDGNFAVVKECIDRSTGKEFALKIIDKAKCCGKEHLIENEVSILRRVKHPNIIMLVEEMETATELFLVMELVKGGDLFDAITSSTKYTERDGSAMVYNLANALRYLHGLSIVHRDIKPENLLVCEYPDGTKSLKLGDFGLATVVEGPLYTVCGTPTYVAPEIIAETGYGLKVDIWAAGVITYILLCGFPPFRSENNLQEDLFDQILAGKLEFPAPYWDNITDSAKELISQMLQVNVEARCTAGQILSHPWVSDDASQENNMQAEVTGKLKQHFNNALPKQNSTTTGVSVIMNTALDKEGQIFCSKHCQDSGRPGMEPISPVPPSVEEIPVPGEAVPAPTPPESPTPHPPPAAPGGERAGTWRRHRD
T30 sequence (Q96NX5 whole entry): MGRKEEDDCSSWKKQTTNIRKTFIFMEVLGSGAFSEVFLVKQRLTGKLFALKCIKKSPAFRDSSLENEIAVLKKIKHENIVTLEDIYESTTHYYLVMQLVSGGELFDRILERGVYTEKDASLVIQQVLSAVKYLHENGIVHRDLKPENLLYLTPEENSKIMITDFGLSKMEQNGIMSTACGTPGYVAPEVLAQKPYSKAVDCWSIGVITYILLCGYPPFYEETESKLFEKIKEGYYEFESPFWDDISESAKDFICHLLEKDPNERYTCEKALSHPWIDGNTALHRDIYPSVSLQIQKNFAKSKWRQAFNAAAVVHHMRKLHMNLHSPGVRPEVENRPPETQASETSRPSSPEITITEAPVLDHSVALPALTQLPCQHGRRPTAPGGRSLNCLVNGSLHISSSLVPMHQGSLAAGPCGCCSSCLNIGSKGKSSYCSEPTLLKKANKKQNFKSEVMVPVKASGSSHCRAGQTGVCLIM
T33 sequence (Q9NRH2 whole entry): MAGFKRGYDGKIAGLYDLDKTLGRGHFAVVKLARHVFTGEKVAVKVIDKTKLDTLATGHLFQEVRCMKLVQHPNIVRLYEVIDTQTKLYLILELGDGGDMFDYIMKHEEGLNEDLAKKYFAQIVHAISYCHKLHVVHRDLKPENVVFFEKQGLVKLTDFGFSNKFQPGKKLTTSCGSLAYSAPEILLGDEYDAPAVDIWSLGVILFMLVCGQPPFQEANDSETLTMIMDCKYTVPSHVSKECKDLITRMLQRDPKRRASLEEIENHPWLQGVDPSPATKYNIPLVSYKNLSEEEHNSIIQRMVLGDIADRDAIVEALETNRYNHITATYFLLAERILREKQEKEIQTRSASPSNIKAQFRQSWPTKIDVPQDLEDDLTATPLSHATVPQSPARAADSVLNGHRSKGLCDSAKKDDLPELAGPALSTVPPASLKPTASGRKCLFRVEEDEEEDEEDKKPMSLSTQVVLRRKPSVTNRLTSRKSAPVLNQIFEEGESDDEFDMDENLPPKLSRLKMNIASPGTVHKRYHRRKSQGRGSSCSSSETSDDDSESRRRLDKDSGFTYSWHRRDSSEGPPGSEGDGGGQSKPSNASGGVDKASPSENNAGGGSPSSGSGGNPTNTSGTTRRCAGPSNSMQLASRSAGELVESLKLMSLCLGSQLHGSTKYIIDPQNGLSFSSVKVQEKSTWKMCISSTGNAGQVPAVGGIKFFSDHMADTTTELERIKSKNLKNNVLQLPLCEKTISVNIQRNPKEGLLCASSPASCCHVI
T15 sequence (P51955 whole entry): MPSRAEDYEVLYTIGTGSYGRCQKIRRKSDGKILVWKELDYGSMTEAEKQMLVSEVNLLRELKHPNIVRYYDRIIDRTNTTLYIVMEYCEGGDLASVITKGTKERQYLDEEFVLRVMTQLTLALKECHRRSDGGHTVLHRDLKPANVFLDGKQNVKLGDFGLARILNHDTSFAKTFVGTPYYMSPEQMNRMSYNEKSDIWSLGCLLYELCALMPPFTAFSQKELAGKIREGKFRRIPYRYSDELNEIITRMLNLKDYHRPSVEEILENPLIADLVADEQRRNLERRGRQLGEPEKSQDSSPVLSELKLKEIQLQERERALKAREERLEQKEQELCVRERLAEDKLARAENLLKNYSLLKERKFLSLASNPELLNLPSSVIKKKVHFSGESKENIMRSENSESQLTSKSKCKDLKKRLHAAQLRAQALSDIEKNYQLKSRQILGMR
T18 sequence (Q09013 whole entry): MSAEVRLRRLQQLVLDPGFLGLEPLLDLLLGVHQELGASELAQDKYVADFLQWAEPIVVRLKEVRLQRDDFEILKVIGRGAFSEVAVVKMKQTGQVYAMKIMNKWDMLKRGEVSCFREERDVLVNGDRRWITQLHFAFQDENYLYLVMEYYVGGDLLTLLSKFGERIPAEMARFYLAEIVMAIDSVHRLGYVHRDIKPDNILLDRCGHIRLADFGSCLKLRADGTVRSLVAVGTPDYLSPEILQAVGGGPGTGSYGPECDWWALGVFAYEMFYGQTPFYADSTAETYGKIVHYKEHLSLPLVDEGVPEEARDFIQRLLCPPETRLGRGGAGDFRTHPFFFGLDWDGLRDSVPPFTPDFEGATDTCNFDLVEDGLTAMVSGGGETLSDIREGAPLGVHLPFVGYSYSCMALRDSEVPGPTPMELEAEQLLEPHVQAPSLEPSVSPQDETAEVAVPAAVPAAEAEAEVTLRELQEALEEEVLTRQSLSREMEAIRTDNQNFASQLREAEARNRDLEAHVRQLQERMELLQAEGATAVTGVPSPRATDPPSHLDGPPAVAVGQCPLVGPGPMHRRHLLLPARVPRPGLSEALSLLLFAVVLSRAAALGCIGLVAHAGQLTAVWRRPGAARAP

**Q.** Which activity at 10 µM [1] does the source give for `O=C(O)c1cc(C(F)(F)F)ccc1NCCc1c[nH]c2cc(Br)ccc12` [Compound 5, 2-((2-(6-Bromo-1H-indol-3-yl)ethyl)amino)−5-(trifluoromethyl)benzoic Acid] here?
**A.** 90.6 ± 0.3%

**Q.** And the activity at 10 µM [2]?
**A.** 114 ± 1.5%

**Q.** What about the activity at 10 µM [3] of the same compound?
**A.** 87.8 ± 1%

**Q.** What about the activity at 10 µM [4] of the same compound?
**A.** 91%

**Q.** And the activity at 10 µM ([5]; CDK1/CYCLIN E)?
**A.** 60.2 ± 0.3%

**Q.** What about the activity at 10 µM ([5]; CDK1/cyclin A) of the same compound?
**A.** 95.4 ± 0.8%

**Q.** What about the activity at 10 µM [6] of the same compound?
**A.** 123 ± 5.3%

**Q.** What about the activity at 10 µM [7] of the same compound?
**A.** 85.4 ± 0.7%

**Q.** And the activity at 10 µM [8]?
**A.** 96.5 ± 0.4%

**Q.** And the activity at 10 µM [9]?
**A.** 93.7 ± 1.2%

**Q.** And the activity at 10 µM [10]?
**A.** 71.1 ± 2%

**Q.** And the activity at 10 µM [11]?
**A.** 67.3 ± 1.4%

**Q.** What about the activity at 10 µM [12] of the same compound?
**A.** 79.2 ± 1.5%

**Q.** And the activity at 10 µM [13]?
**A.** 115 ± 4.5%

**Q.** And the activity at 10 µM [14]?
**A.** 60.1 ± 1.8%

**Q.** What about the activity at 10 µM [15] of the same compound?
**A.** 50.8 ± 1.3%

**Q.** What about the activity at 10 µM [16] of the same compound?
**A.** 95.1%

**Q.** And the activity at 10 µM [17]?
**A.** 87.7 ± 0.4%

**Q.** What about the activity at 10 µM [18] of the same compound?
**A.** 108.2 ± 0.2%

**Q.** And the activity at 10 µM [19]?
**A.** 80 ± 5.9%

**Q.** And the activity at 10 µM [20]?
**A.** 57.6 ± 2%

**Q.** And the activity at 10 µM [21]?
**A.** 93.7 ± 1.8%

**Q.** And the activity at 10 µM [22]?
**A.** 91 ± 0.5%

**Q.** And the activity at 10 µM [23]?
**A.** 88.2 ± 0.3%

**Q.** And the activity at 10 µM [24]?
**A.** 103 ± 3.1%

**Q.** What about the activity at 10 µM [25] of the same compound?
**A.** 98.3 ± 1.2%

**Q.** And the activity at 10 µM [26]?
**A.** 78.7 ± 0.2%

**Q.** What about the activity at 10 µM [27] of the same compound?
**A.** 88.9 ± 1%

**Q.** What about the activity at 10 µM [28] of the same compound?
**A.** 101.3 ± 0.6%

**Q.** What about the activity at 10 µM [29] of the same compound?
**A.** 69.6 ± 1.3%

**Q.** What about the activity at 10 µM [30] of the same compound?
**A.** 40.8 ± 2.3%

**Q.** And the activity at 10 µM [31]?
**A.** 102 ± 3%

**Q.** And the activity at 10 µM [32]?
**A.** 77.6 ± 0.1%

**Q.** And the activity at 10 µM [33]?
**A.** 80.4 ± 2.1%

**Q.** What about the activity at 10 µM [34] of the same compound?
**A.** 56 ± 0.2%

**Q.** What about the activity at 10 µM [35] of the same compound?
**A.** 109 ± 2.6%

**Q.** What about the activity at 10 µM [36] of the same compound?
**A.** 90.2 ± 0.5%
